Test results as given in PubChem BioAssay AID1386 (Sanford-Burnham Center for Chemical Genomics, 2008).

Test system: mouse primary cortical neurons, thapsigargin death, survival counting
Assay: neuroprotection against thapsigargin-induced death, late-stage follow-up, ER stress cell death inhibitors, imaging, mouse primary cortical neurons, immunostaining, death counting (AID 1386)
Conditions: at 25 µM

Q: With `COc1ccc(C2CC(=O)C3=C(C2)Nc2ccccc2NC3c2cccc(Oc3ccccc3)c2)cc1OC` (configuration not stated) as the compound, how does the survival (stronger effect = higher value) read?
A: Its survival is 87%.

Q: And the survival (measured here: survival without thapsigargin)?
A: The survival was 91%.
